Legend:
[1] = system: SH-SY5Y human neuroblastoma cells; assay: Dose-response cell viability screening, MTT reduction assay; type: cell-based; conditions: for cytotoxicity on SH-SY5Y cell line: 10 μM to 100 μM, 24 h, at the active concentrations; for highest non-toxic concentration (selected concentration): SH-SY5Y cells exposed for 25 h
Method: (§1) SH-SY5Y human neuroblastoma cells (ATCC-CRL-2266) were seeded in DMEM/F12 (Dulbecco’s Modified Eagle Medium/Ham’s F-12 Nutrient Mixture; Thermo Fisher Scientific) with 10% heat inactivated fetal bovine serum, 50 U/mL penicillin and 50 U/mL streptomycin under a humidified atmosphere with 95% relative humidity at 37 °C at a 0.16 × 10^6 cells/mL density. Stock solutions from tested compounds (1, 2, 4 and 5) were prepared in DMSO at a 25 mM concentration and stored at −20 °C until needed. In order to select the highest non-toxic concentration, a dose-response screening was performed, where SH-SY5Y cells were exposed to the compounds for 25 h. The selected concentrations for each compound were: 75 µM final concentration for 1 and 2; 10 µM final concentration for 4 and 20 µM final concentration for 5. […] For the neuroprotection assays, the selected compounds were added to the cell media 1 hour prior to the incubation with Aβ1-42 or L-ascorbic acid/ferrous sulphate. Aβ1-42 or L-ascorbic acid/ferrous sulphate treatment was maintained for another 24 h. Aβ1-42 was prepared as 276.9 µM stock in sterile water and administrated in the medium at a 2.5 µM final concentration. Ferrous sulphate was freshly prepared as 0.36 M stock in water and added to the medium at 2.5 mM final concentration. L-ascorbic acid was freshly prepared as 80 mM stock in water and added to the medium at 5 mM final concentration. Aβ1-42 was purchased from Bachem (Torrance, CA, USA) and ferrous sulphate and L-ascorbic acid from Sigma Chemical Co (St. Louis, MO, USA).
(§2) Cell viability was measured by using the MTT (3-(4,5-dimethylthiazol-2-yl)-2,5-diphenyl tetrazolium bromide) reduction assay. This test is based on the presence of succinate dehydrogenase enzyme in viable cells, that allows them to metabolize MTT into a formazan. After treatment, the medium was removed, and cells were washed with 1x PBS one time to remove dead cells. 200 µL of MTT solution (0.5 mg/mL) was added to each well and incubated for 2 h protected from light. Formazan precipitates were then dissolved in DMSO and absorbance measured at 570 nm. The ability to reduce MTT was expressed as a percentage of untreated control cells.
Figure 10 Dose-response screening of compounds 1, 2, 4 and 5 on SH-SY5Y neuronal cell line. Overnight cultures were treated with a range of concentrations from 10 μM to 100 μM for 24 h and cellular viability was determined by employing the MTT reduction assay.

[2] = system: SH-SY5Y human neuroblastoma cells; assay: Neuroprotection against Aβ1-42-induced toxicity, MTT; type: cell-based; conditions: Aβ1-42 2.5 μM 24 h; 1 h pre-incubation; compounds 1, 2 100 µM; 4 10 µM; 5 20 µM
Method: as §1, §2
Overnight cultures were treated with Aβ1-42 peptide (2.5 μM) for 24 h in the absence or in the presence of the compounds. When compounds were present, a pre-incubation of 1 h preceded the Aβ1-42 treatment. Cellular viability was determined by employing the MTT reduction assay. […] (compounds: 1, 2–100 µM; 4–10 µM; 5–20 µM).

[3] = Radical scavenging activity, DPPH method; conditions: DPPH assay; mean ± SEM of 3 independent experiments
Method: Therefore, they were assayed for radical scavenging activity using the DPPH method.
The final volume of the assay was 3.5 mL, corrected with MeOH to obtain different concentrations of our compound in each assay. The control solution was composed of MeOH and DPPH [14]. After 30 min, at RT, protected from light, the absorbance was measured at 517 nm (Perkin Elmer Lambda 35 spectrophotometer equipped with a temperature programmer PTP 1þ1 Peltier System, using thermostated (T¼25.0 ± 0.1 °C) 1 cm path length cells), against a blank solution (MeOH). The assays were performed in triplicate, in which the EC50 was obtained through the graphical representation of the %AA vs. the inhibitor concentration.

[4] = biological target: AChE of electroforus electricus (electric eel) (Electrophorus electricus, UniProt O42275); assay: biochemical; conditions: AChE from electric eel; mean of three independent experiments ± SEM; read-out: eeAChEi IC50
Method: All new racemic compounds were tested as acetylcholinesterase inhibitors via an in vitro assay, following a modification of Ellman’s method in three independent experiments, using tacrine as a reference compound. […] Enzyme inhibition assays were performed using an adaptation of Ellman’s method. The readings were made in a spectrophotometer Perkin-Elmer Lambda 35 UV-Vis. Enzyme activity is measured by following the increase in yellow color produced from thiocholine when it reacts with dithiobisnitrobenzoate ion (DTNB). DTNB solution was obtained dissolving the reagent in HEPES buffer with salts, namely NaCl (50 mM) and MgCl2 (20 mM), obtaining a 3 mM solution. The enzyme AChE of electroforus electricus (electric eel) stock (500 U) was dissolved in TRIS 50 mM, pH 8.0, being posteriorly diluted to assay concentrations (5 U), obtaining an aliquot of 1 mL. The enzyme substrate used was acetylthiocholine iodide (AThCh, 16 mM), which was prepared with deionized water. The compounds tested were diluted in MeOH or DMSO (1 mg/mL, 2–7 × 10^−3 M), with further dilution, and five different concentrations were used for each compound, obtaining different percentages of AChE inhibition. The assay consists in the addition of HEPES (50 mM, pH = 8), inhibitor, AChE and MeOH in a 1 mL cuvette. The mixture was left to incubate for 15 min and, after that, AThCh and DTNB were added. The enzymatic reaction was followed through the measurements of absorbencies at 405 nm (Perkin Elmer Lambda 35 spectrophotometer equipped with a temperature programmer PTP 1þ1 Peltier System, using thermostated (T = 25.0 ± 0.1 °C) 1 cm path length cells) during 5 min. A blank solution containing all the components except the enzyme, that was substituted for equal volume of HEPES, was used. A control reaction was used using MeOH instead of the new compounds and was considered the reaction corresponding to 100% enzymatic activity. Each assay was performed in quintupled.

AChE of electroforus electricus (electric eel), sequence (O42275 24-633): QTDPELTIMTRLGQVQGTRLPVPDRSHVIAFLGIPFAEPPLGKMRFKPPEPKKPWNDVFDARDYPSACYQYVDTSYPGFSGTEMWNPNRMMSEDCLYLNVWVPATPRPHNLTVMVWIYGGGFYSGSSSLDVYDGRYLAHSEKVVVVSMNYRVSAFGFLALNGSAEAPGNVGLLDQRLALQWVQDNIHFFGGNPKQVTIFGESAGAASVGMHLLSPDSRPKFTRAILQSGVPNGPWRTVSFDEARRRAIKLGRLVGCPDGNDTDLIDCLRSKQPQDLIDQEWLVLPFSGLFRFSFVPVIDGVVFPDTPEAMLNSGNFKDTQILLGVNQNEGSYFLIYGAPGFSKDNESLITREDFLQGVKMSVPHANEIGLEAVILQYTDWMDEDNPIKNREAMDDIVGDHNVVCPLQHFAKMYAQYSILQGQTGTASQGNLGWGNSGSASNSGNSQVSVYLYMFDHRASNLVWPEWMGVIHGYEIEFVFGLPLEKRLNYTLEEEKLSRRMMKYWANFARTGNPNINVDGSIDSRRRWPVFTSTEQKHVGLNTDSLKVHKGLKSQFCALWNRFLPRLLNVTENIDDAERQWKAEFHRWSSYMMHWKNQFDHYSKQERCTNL

| Compound | cytotoxicity on SH-SY5Y cell line [1] | highest non-toxic concentration (selected concentration) [1] [µM] | protection against Aβ1-42-induced toxicity [2] | Antioxidant Activity EC50 [3] | IC50 [4] [µM] |
| --- | --- | --- | --- | --- | --- |
| CCOC(=O)C1=C(O)C(Cc2ccccc2)NC1=O (stereo not shown) [Compound 2, Ethyl 5-benzyl-4-hydroxy-2-oxo-2,5-dihydro-1H-pyrrole-3-carboxylate] | do not show (except for compound 4) cytotoxicity | 75 | do not confer protection | 6.3 ± 0.1 µmol/µmol of DPPH | 57 ± 4 |
| CCOC(=O)C1=C(O)C(C(C)C)NC1=O (stereo not shown) [Compound 1, Ethyl 4-hydroxy-5-isopropyl-2-oxo-2,5-dihydro-1H-pyrrole-3-carboxylate] | do not show (except for compound 4) cytotoxicity | 75 | do not confer protection | 10.8 ± 0.2 µmol/µmol of DPPH | 42 ± 3 |

Reference: paper PMC7830597, “Derivatives of Tenuazonic Acid as Potential New Multi-Target Anti-Alzheimer’s Disease Agents” (Biomolecules, 2021)
